Source: ChEMBL document CHEMBL1201862, “PubChem BioAssay data set” (2004)
The source made the active and inactive calls.

Columns and labels:
[1] = target: T1, Calpain-2 catalytic subunit (Sus scrofa, UniProt P43367); assay: m-calpain protease blockers, concentration series – biochemical, fluorogenic peptide substrate, dose response (AID 1420); type: functional
T1 sequence (P43367 whole entry): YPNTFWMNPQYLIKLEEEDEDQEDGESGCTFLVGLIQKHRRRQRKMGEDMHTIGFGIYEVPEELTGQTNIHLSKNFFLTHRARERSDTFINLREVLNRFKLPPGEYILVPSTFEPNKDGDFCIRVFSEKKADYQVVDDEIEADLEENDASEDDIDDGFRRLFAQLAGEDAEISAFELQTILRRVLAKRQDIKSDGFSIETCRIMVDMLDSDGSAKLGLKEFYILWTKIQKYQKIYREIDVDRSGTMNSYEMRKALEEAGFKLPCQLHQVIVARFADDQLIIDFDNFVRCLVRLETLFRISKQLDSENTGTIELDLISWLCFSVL

[2] = target: T2, Heat shock factor protein 1 (Mus musculus, UniProt P38532); assay: enhancement of HSF1-driven luciferase signal – cell-based, NIH3T3, luminescence, dose retest, confirmation (AID 435004); type: functional;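 note: stress induced by proteasome inhibitor MG132 added 30 min after compound; luciferase reporter driven by HSF1 response element in NIH3T3 cells; actives raise luminescence as potentiators of the MG132 stress response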
T2 sequence (P38532 whole entry): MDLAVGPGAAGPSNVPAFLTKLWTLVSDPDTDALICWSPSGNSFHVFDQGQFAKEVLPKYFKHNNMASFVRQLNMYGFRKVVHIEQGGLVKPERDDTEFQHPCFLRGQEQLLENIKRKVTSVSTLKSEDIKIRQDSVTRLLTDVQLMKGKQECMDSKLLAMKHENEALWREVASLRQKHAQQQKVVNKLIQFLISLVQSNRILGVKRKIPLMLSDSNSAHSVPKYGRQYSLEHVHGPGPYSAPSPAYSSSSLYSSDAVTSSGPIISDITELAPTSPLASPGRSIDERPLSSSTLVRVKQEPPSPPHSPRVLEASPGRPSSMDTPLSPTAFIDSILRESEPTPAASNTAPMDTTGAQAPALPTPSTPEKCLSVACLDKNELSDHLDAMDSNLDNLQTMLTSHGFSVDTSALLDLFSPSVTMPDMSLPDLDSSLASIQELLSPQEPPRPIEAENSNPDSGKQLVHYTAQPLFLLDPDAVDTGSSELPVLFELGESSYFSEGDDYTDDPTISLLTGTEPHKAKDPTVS

[3] = target: T3, Carboxy-terminal domain RNA polymerase II polypeptide A small phosphatase 1 (Homo sapiens, UniProt Q9GZU7); assay: CTDSP1 inhibitors, concentration-response, biochemical, absorbance readout, ultra-high-throughput screen actives (AID 540297); type: functional
T3 sequence (Q9GZU7 whole entry): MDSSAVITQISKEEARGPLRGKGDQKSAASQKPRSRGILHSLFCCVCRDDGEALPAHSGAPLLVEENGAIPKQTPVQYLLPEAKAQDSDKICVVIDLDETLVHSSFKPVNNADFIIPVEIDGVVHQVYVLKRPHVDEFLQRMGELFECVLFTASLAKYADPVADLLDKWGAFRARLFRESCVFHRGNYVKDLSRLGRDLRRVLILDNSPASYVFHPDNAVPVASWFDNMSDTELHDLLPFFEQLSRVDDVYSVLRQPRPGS

[4] = target: FAD-linked sulfhydryl oxidase ALR (Homo sapiens, UniProt P55789); assay: ALR-catalysed DTT oxidation blockers – biochemical, H2O2 detection, luminescence, cherry-pick, dose response (AID 493248)
Chain of FAD-linked sulfhydryl oxidase ALR (P55789 whole entry, the tested form may be a part): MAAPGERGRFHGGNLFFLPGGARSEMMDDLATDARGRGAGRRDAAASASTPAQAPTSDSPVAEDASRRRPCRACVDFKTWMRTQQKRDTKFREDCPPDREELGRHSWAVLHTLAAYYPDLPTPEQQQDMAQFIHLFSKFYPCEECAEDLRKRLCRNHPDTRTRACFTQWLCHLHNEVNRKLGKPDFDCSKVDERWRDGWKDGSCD

[5] = target: T4, RNA-binding protein pos-1 (Caenorhabditis elegans, UniProt G5EF15); assay: disruptors of C. elegans POS-1 RNA interaction – biochemical, fluorescence polarization, dose response (AID 1964);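 note: purified POS-1 fused to maltose binding protein made in E. coli; potency of compounds blocking POS-1 binding to fluorescent RNA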
T4 sequence (G5EF15 whole entry): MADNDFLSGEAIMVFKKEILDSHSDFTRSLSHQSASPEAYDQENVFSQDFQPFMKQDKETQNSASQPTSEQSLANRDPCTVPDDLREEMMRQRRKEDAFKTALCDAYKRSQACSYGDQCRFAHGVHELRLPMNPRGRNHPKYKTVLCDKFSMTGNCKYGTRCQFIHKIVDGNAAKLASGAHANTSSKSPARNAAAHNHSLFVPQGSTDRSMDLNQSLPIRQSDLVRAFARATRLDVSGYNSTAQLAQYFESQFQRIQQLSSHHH

[6] = target: T5, Zinc finger protein mex-5 (Caenorhabditis elegans, UniProt Q9XUB2); assay: potency of MEX-5 RNA-binding blockers – biochemical, C. elegans, fluorescence polarization, dose response (AID 1960)
T5 sequence (Q9XUB2 whole entry): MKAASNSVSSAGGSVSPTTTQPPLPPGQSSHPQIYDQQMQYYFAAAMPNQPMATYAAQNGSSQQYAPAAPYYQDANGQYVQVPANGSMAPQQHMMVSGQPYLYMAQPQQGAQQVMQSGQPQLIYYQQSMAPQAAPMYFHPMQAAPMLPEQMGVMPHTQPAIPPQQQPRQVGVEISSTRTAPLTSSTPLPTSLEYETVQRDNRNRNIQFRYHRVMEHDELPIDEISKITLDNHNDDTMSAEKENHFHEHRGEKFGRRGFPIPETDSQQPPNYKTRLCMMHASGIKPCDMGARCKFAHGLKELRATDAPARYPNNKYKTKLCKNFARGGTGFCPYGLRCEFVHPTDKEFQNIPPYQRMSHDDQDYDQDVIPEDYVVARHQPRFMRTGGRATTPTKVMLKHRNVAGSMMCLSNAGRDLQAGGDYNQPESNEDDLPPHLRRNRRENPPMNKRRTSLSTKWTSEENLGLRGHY

[7] = NIH-3T3 fibroblast cytotoxicity, dose response, cytotoxicity control, cell-based, fluorescence, Alamar Blue, secondary assay (AID 2327); type: functional;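 note: NIH-3T3 mouse fibroblasts cultured with fluconazole at 8 µg/mL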
[8] = fluconazole-exposed Candida albicans growth modulators – fluorescence, retest, confirmation (AID 2467); type: functional, cell-based
[9] = HIV-1 AD8 envelope cell-cell fusion blockers – cherry-pick, dose response (AID 652062); type: functional, cell-based;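 note: luciferase signal from cell-cell fusion driven by HIV-1 clade B AD8 Env; potency is for inhibitors of fusion seen as a drop in luminescence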
Cytochrome P450 3A4 = Cytochrome P450 3A4 (Homo sapiens, UniProt P08684);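 note: CYP3A4 tested as one member of a cytochrome P450 panel screen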
Chain of Cytochrome P450 3A4 (P08684 whole entry): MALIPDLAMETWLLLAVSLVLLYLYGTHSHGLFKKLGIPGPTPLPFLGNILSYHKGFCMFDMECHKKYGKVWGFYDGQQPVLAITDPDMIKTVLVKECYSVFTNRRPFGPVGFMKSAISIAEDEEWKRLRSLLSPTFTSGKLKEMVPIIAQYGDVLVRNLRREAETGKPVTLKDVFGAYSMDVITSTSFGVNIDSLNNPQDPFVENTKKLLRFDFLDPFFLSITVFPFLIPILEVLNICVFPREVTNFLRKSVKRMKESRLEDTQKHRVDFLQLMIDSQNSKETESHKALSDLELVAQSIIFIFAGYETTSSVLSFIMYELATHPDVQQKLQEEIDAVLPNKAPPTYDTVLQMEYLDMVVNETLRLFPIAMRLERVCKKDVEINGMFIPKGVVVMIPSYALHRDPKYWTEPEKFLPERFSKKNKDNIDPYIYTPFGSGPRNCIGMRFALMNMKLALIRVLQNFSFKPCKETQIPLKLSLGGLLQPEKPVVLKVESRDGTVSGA

[10] = viability of PTEN-deleted HCT116 cells – cell-based, HCT116 PTEN knockout, dose response (AID 1047); type: functional;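 note: HCT116 colon tumor cells with PTEN knocked out; cells exposed to compound for 60 hours before readout; potency for loss of cell viability measured by luminescence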
[11] = viability of HCT116 lacking mutant beta-catenin – cell-based, human colon tumor, dose response (AID 1045); type: functional;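 note: HCT116 colon tumor cells with beta catenin knocked out; cells exposed to compound for 60 hours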
Nonstructural protein 1 = Nonstructural protein 1 (Influenza A virus, UniProt Q194T2); type: functional, Influenza A virus (A/California/07/2009(H1N1))
Chain of Nonstructural protein 1 (Q194T2 whole entry): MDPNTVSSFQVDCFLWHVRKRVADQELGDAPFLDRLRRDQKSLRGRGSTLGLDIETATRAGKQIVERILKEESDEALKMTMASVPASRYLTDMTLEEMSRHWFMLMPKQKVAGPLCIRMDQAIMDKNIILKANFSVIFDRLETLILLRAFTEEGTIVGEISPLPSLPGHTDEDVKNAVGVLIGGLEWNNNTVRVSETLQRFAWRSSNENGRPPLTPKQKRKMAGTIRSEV

[12] = target: T6, Polyadenylate-binding protein 1 (Homo sapiens, UniProt P11940); assay: MLLE binding blockers, Cy5 peptide tracer – biochemical, fluorescence polarization, Cy5-PAM2 peptide, secondary, miRNA deadenylation inhibitor project, dose response (AID 602260); type: functional; settings: read-out: IC50_Mean
T6 sequence (P11940 whole entry, the tested form may be a part): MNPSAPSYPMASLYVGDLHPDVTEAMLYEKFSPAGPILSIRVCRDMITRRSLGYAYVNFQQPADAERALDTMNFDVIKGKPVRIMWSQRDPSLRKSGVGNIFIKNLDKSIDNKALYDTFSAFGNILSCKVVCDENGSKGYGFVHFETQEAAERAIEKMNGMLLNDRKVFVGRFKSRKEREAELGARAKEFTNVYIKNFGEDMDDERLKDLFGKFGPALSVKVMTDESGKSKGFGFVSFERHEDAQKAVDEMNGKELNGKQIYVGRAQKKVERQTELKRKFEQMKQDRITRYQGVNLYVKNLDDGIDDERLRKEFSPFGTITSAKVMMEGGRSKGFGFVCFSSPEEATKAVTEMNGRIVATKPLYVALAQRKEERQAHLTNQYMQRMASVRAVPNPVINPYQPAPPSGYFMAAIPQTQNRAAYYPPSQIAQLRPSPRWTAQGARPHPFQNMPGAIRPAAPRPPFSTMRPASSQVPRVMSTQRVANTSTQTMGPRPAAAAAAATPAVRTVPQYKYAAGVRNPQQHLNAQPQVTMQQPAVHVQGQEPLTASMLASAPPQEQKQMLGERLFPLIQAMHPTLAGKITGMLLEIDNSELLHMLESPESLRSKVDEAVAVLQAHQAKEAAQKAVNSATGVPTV

[13] = target: T6, Polyadenylate-binding protein 1; assay: MLLE domain peptide-binding blockers, IC50 – biochemical, fluorescence polarization, FITC-PAM2 peptide, dose response (AID 602259); type: functional; settings: read-out: IC50_Mean

In the case of `Cc1ccc(NC2OC(CO)C(O)C2O)cc1[N+](=O)[O-]` (stereo unspecified), the IC50 [1] was > 50 µM (not active) and the EC50 [2] was > 260 µM (inactive).

In the case of `O=C(CCS(=O)(=O)c1ccc(Br)cc1)NC1CCCC1`, the IC50 [3] was 9.44 µM (active).

With `CC[N+]1(C)CC2CCC(C)(C1)C2(C)C` (stereo unspecified) the IC50 [3] was 27.8 µM (active).

With `CCNc1ccc(S(=O)(=O)N(C)C)cc1NCC(=O)Nc1ccccc1F` the AC50 [4] was 1.8 µM (active).

With `COC(=O)CCC(=O)OC1(C)C(=O)C=C2C=C(C3CC3)OC=C2C1=O` (stereo unspecified) the EC50 [5] was 17.7 µM (active) and the EC50 [6] was 68.8 µM (inconclusive).

In the case of `CCCCC(=O)OCC(=O)c1[nH]c(C)c(C(=O)OCC)c1C`, the EC50 [2] was > 260 µM (inactive).

With `C=CC[n+]1c(-c2ccc(C)cc2)csc1NNC(=O)Nc1ccccc1` the EC50 [7] was > 150 µM (inconclusive), the EC50 [8] was 1.27 µM (active) and the AC50 [9] was 9.27 µM (active). The AC50 (Cytochrome P450 3A4) was 3.55 µM (inconclusive).

For `CCOC(=O)C(C(=O)OCC)C(C(=O)OCC)N1CCOCC1` (stereo unspecified), the EC50 [10] was 6.34 µM (active) and the EC50 [11] was 5.16 µM (active).

In the case of `COC(=O)C1=C(C)N(c2cc(Cl)cc(Cl)c2)C(=O)C1`, the EC50 [10] was 35.6 µM (active) and the EC50 [11] was 42.9 µM (active).

In the case of `Cc1cc(S(=O)(=O)N2CCN(c3ccccc3O)CC2)c(C)s1`, the AC50 [4] was 0.156 µM (active).

For `COc1ccc(CSc2nc(O)cc(=O)n2CC(C)C)cc1F`, the AC50 [4] was 0.949 µM (active).

In the case of `O=C(CN1C(=O)c2cccc3cccc(c23)C1=O)N1CCN(Cc2ccc3c(c2)OCO3)CC1`, the IC50 (Nonstructural protein 1) was > 100 µM (active).

With `O=C(CSc1nnc(Nc2ccccc2F)s1)NC(=O)CN1CCCC1=O` the IC50 [3] was 5.43 µM (active).

In the case of `Cc1cccc(N=Nc2c(O)nc(O)c(C#N)c2C)c1`, the EC50 [2] was 258 µM (active).

With `C#CCOCCOCCOCCNc1nc(N2CCN(C(=O)[C@H]([C@@H](C)CC)n3cc([C@@H](N)CO)nn3)CC2)nc(N2CCN(C(=O)[C@H]([C@@H](C)CC)n3cc([C@@H](N)CC(C)C)nn3)CC2)n1` the EC50 [5] was 24.4 µM (active), the EC50 [6] was 18 µM (active) and the IC50 [12] was > 66 µM (inactive). The IC50 [13] was 43.1 µM (inactive).

With `Cc1ccc(-c2nc(-c3ccccn3)sc2CC(=O)O)cc1` the AC50 [4] was 0.226 µM (active).

With `COc1ccc(CCNCc2ccc(Br)cc2)cc1OC` the EC50 [2] was > 260 µM (inactive).

With `CCN(CC)c1ccc(Nc2nc(N3CCOCC3)c3ccccc3n2)cc1` the IC50 (Nonstructural protein 1) was 11.5 µM (active).

For `O=C(COC(=O)c1ccccc1O)NCc1ccco1`, the IC50 [3] was 9.53 µM (active).

With `O=C(Nc1nnc(-c2cccnc2)o1)c1cccc([N+](=O)[O-])c1` the AC50 [4] was 1.61 µM (active).

With `O=c1[nH]c(CN2CCc3ccccc3C2)nc2ccccc12` the EC50 [5] was > 300 µM (not active), the EC50 [6] was > 300 µM (not active) and the IC50 [12] was > 66 µM (inactive). For the same molecule, the IC50 [13] was > 66 µM (inactive).

In the case of `COc1ccccc1NC(=O)C1=C(C)N(c2ccccc2)C(S)=NC1c1cccc(C(F)(F)F)c1` (stereo unspecified), the EC50 [10] was 14.3 µM (active) and the EC50 [11] was 13.7 µM (active).

With `O=C(Nc1c(C(=O)c2ccccc2)oc2ccccc12)c1cc(-c2ccccc2O)n[nH]1` the EC50 [2] was > 260 µM (inactive).

With `COc1cccc(N2C(=O)NC(=O)/C(=C/Nc3c(C)n(C)n(-c4ccccc4)c3=O)C2=O)c1` the EC50 [5] was > 300 µM (not active) and the EC50 [6] was > 300 µM (not active).

With `CC(=O)Nc1ccc(N2C(=O)CSC2c2ccccc2[N+](=O)[O-])cc1` (stereo unspecified) the AC50 [4] was 0.517 µM (active).

For `CN(C)c1ccc(CN(Cc2ccco2)C(=O)c2ccco2)cc1`, the AC50 [4] was 0.822 µM (active).

In the case of `O=C(Nc1ccc2c(c1)C(=O)NC2=O)c1cccc(C(F)(F)F)c1`, the IC50 [3] was 9.33 µM (active).

With `CC(C)OC(=O)CC(=O)CSc1nc2c(cc1C#N)CCC2` the EC50 [10] was 5.82 µM (active) and the EC50 [11] was 8.4 µM (active).

With `COc1ccc(Br)cc1CNc1ccc2[nH]c(O)nc2c1` the AC50 [4] was 1.08 µM (active).

In the case of `O=C(N/N=C/c1ccncc1)c1ccc(NC(=O)c2cccc(Cl)c2)cc1`, the IC50 [3] was 13.9 µM (active).

With `NC(=O)c1cccc(/N=C/c2cc(Cl)cc(Cl)c2O)c1` the EC50 [5] was > 300 µM (not active) and the EC50 [6] was > 300 µM (not active).

In the case of `O=C(NCc1ccccn1)C(=O)N/N=C/c1ccccc1O`, the IC50 (Nonstructural protein 1) was 14 µM (active).

With `COc1ccc(C2C(C#N)=C(/N=C/N3CCOCC3)OC3=C2C(=O)CC(C)(C)C3)cc1OC` (stereo unspecified) the EC50 [5] was > 300 µM (not active) and the EC50 [6] was > 300 µM (not active).
